Laboratory results taken from DBAASP.
In brackets after ≈: the same amount, converted by molar mass. Blank lines part the entries; values can stand above or below the compound they belong to.

Experiments:
Experiment in all cases: ≥ marks a high value that may be exact or a test limit, other limits are often not marked, values filed in µg/mL are converted to µM
[1] = test system: Bacillus subtilis ATCC 6633
[2] = test system: Candida albicans ATCC 10231
[3] = test system: Escherichia coli ATCC 25922
Escherichia coli D31 = test system: Escherichia coli D31
[4] = test system: Pseudomonas aeruginosa ATCC 15442
[5] = test system: Pseudomonas aeruginosa PAO1
[6] = test system: Staphylococcus aureus ATCC 25923
[7] = test system: Staphylococcus aureus ATCC 43300
Staphylococcus aureus MR = test system: Staphylococcus aureus MR
[8] = test system: Streptococcus mutans ATCC 25175
Bacillus subtilis 168 = test system: Bacillus subtilis 168
[9] = test system: Candida albicans F7-39/IDE99
Escherichia coli B = test system: Escherichia coli B
[10] = test system: Micrococcus luteus CCM 144
[11] = test system: Pseudomonas aeruginosa ATCC 27853
Pseudomonas aeruginosa = test system: Pseudomonas aeruginosa
Staphylococcus aureus 1 = test system: Staphylococcus aureus 1
Staphylococcus aureus = test system: Staphylococcus aureus
[12] = test system: Staphylococcus epidermidis
[13] = test system: Acinetobacter baumannii KCTC 2508
[14] = test system: Klebsiella pneumoniae KCTC 2208
[15] = test system: Cronobacter muytjensii ATCC 51329
[16] = test system: Cronobacter sakazakii ATCC BAA-894
[17] = test system: Cronobacter sakazakii DPC 6440
[18] = test system: Cronobacter sakazakii DSM 4485
[19] = test system: Escherichia coli NCIMB 11843
[20] = test system: Klebsiella pneumoniae NCIMB 13218
[21] = test system: Pseudomonas fluorescens NCIMB 9046
[22] = test system: Salmonella enterica subsp. enterica serovar Typhimurium LT2
[23] = test system: Staphylococcus aureus NCTC 8325-4
[24] = test system: Staphylococcus aureus Newman
[25] = test system: Staphylococcus aureus RF122
[26] = test system: Staphylococcus aureus RN4220
[27] = test system: Staphylococcus aureus SA113
Bacillus subtilis = test system: Bacillus subtilis
Escherichia coli = test system: Escherichia coli
Proteus vulgaris = test system: Proteus vulgaris
Salmonella typhimurium = test system: Salmonella typhimurium
Streptococcus pyogenes = test system: Streptococcus pyogenes
Proteus mirabilis = test system: Proteus mirabilis

SMILES: CC[C@H](C)[C@H](NC(=O)[C@H](CCCCN)NC(=O)[C@H](CCC(N)=O)NC(=O)[C@H](CC(C)C)NC(=O)[C@@H](N)Cc1ccccc1)C(=O)N[C@H](C(=O)NCC(=O)N[C@@H](C)C(=O)N[C@@H](CC(C)C)C(=O)NCC(=O)N[C@@H](CCCCN)C(=O)N[C@@H](CC(C)C)C(=O)N[C@@H](Cc1ccccc1)C(N)=O)[C@@H](C)CC [FLQKIIGALGKLF]
- MIC [1]: 12.5 µM (≈ 18.1 µg/mL)
- MIC [2]: 25 µM (≈ 36.2 µg/mL)
- MIC [3]: 6.2 µM (≈ 8.97 µg/mL)
- MIC (Escherichia coli D31): 12.5 µM (≈ 18.1 µg/mL)
- MIC [4]: 6.2 µM (≈ 8.97 µg/mL)
- MIC [5]: 12.5 µM (≈ 18.1 µg/mL)
- MIC [6]: 1.6 µM (≈ 2.31 µg/mL)
- MIC [7]: 6.2 µM (≈ 8.97 µg/mL)
- MIC (Staphylococcus aureus MR): 6.2 µM (≈ 8.97 µg/mL)
- MIC [8]: 3.1 µM (≈ 4.49 µg/mL)

SMILES: CC[C@H](C)[C@H](NC(=O)CN)C(=O)N[C@@H](CC(C)C)C(=O)N[C@@H](CO)C(=O)N[C@@H](CO)C(=O)N[C@@H](CC(C)C)C(=O)N[C@@H](CC(C)C)C(=O)N[C@@H](CCCCN)C(=O)N[C@@H](CCCCN)C(=O)N[C@@H](Cc1c[nH]c2ccccc12)C(=O)N[C@@H](CCCCN)C(=O)N[C@@H](CCCCN)C(=O)N[C@H](C(=O)N[C@H](C(=O)N[C@@H](C)C(=O)N[C@@H](CCCCN)C(N)=O)[C@@H](C)CC)[C@@H](C)CC [GILSSLLKKWKKIIAK]
- MIC (Bacillus subtilis 168): 7 µM (≈ 12.8 µg/mL)
- MIC [9]: 11 µM (≈ 20.1 µg/mL)
- MIC (Escherichia coli B): 7.5 µM (≈ 13.7 µg/mL)
- MIC [10]: 3 µM (≈ 5.48 µg/mL)
- MIC [11]: 5 µM (≈ 9.13 µg/mL)
- MIC (Pseudomonas aeruginosa): 7.1 µM (≈ 13 µg/mL)
- MIC (Staphylococcus aureus 1): 7.8 µM (≈ 14.2 µg/mL)
- MIC [7]: 20 µM (≈ 36.5 µg/mL)
- MIC (Staphylococcus aureus): 20 µM (≈ 36.5 µg/mL)
- MIC [12]: 2.7 µM (≈ 4.93 µg/mL)

SMILES: CC[C@H](C)[C@H](NC(=O)CN)C(=O)N[C@@H](CC(C)C)C(=O)N[C@@H](CO)C(=O)N[C@@H](CO)C(=O)N[C@@H](CC(C)C)C(=O)N[C@@H](Cc1c[nH]c2ccccc12)C(=O)N[C@@H](CCCCN)C(=O)N[C@@H](CCCCN)C(=O)N[C@@H](CC(C)C)C(=O)N[C@@H](CCCCN)C(=O)N[C@@H](CCCCN)C(=O)N[C@H](C(=O)N[C@H](C(=O)N[C@@H](C)C(=O)N[C@@H](CCCCN)C(N)=O)[C@@H](C)CC)[C@@H](C)CC [GILSSLWKKLKKIIAK]
- MIC (Bacillus subtilis 168): 7 µM (≈ 12.8 µg/mL)
- MIC [9]: 11 µM (≈ 20.1 µg/mL)
- MIC (Escherichia coli B): 3.4 µM (≈ 6.21 µg/mL)
- MIC [10]: 3 µM (≈ 5.48 µg/mL)
- MIC [11]: 5.3 µM (≈ 9.67 µg/mL)
- MIC (Pseudomonas aeruginosa): 8.8 µM (≈ 16.1 µg/mL)
- MIC (Staphylococcus aureus 1): 2 µM (≈ 3.65 µg/mL)
- MIC [7]: 5.3 µM (≈ 9.67 µg/mL)
- MIC (Staphylococcus aureus): 5 µM (≈ 9.13 µg/mL)
- MIC [12]: 2 µM (≈ 3.65 µg/mL)

SMILES: CC[C@H](C)[C@H](N)C(=O)N[C@@H](C)C(=O)N[C@@H](CCCN=C(N)N)C(=O)N[C@@H](CCCN=C(N)N)C(=O)N[C@@H](C)C(=O)N[C@@H](CC(C)C)C(=O)N[C@@H](CCCCN)C(=O)N[C@@H](CCCCN)C(=O)N[C@@H](C)C(=O)N[C@@H](CCCCN)C(=O)N[C@@H](CCCN=C(N)N)C(=O)N[C@@H](C)C(=O)N[C@@H](C)C(=O)N[C@@H](Cc1cnc[nH]1)C(=O)N[C@H](C(=O)N[C@H](C(=O)N1CCC[C@H]1C(=O)N[C@@H](CCC(N)=O)C(=O)N[C@@H](CS)C(=O)N[C@@H](CCCCN)C(=O)N[C@@H](CCCCN)C(=O)N[C@@H](Cc1ccccc1)C(=O)NCC(=O)N[C@@H](CCCN=C(N)N)C(=O)N[C@@H](CCCN=C(N)N)C(N)=O)[C@@H](C)CC)[C@@H](C)O [IARRALKKAKRAAHTIPQCKKFGRR]
- MIC [13]: 4 µM (≈ 11.6 µg/mL)
- MIC [14]: 4 µM (≈ 11.6 µg/mL)
- MIC [11]: 2 µM (≈ 5.81 µg/mL)

SMILES: CC[C@H](C)[C@H](N)C(=O)N[C@@H](CCCCN)C(=O)N[C@@H](Cc1cnc[nH]1)C(=O)N[C@@H](CCC(N)=O)C(=O)NCC(=O)N[C@@H](CC(C)C)C(=O)N1CCC[C@H]1C(=O)N[C@@H](CCC(N)=O)C(=O)N[C@@H](CCC(=O)O)C(=O)N[C@@H](CC(=O)O)C(=O)O [IKHQGLPQED]
- MIC [15]: ≥ 2500 µM
- MIC [16]: ≥ 625 µM
- MIC [17]: ≥ 625 µM
- MIC [18]: ≥ 625 µM
- MIC [19]: ≥ 1250 µM
- MIC [20]: ≥ 1250 µM
- MIC [21]: ≥ 1250 µM
- MIC [22]: ≥ 2500 µM
- MIC [23]: ≥ 1250 µM
- MIC [24]: ≥ 1250 µM
- MIC [25]: ≥ 1250 µM
- MIC [26]: ≥ 1250 µM
- MIC [27]: ≥ 625 µM

The next lines start with the values.

- MIC (Bacillus subtilis): ≥ 64 µM
- MIC (Escherichia coli): 64 µM (≈ 55.8 µg/mL)
- MIC (Proteus vulgaris): ≥ 64 µM
- MIC (Pseudomonas aeruginosa): 64 µM (≈ 55.8 µg/mL)
- MIC (Salmonella typhimurium): ≥ 64 µM
- MIC [12]: ≥ 64 µM
- MIC (Streptococcus pyogenes): ≥ 64 µM
SMILES: CC(C)C[C@H](NC(=O)[C@H](CCCN=C(N)N)NC(=O)[C@@H]1CCCN1C(=O)[C@H](Cc1cnc[nH]1)NC(=O)[C@@H]1CCCN1C(=O)[C@@H]1CCCN1C(=O)[C@@H](N)CCCN=C(N)N)C(=O)O [RPPHPRL]

- MIC (Bacillus subtilis): ≥ 64 µM
- MIC (Escherichia coli): 16 µM (≈ 29.2 µg/mL)
- MIC (Proteus vulgaris): ≥ 64 µM
- MIC (Pseudomonas aeruginosa): 64 µM (≈ 117 µg/mL)
- MIC (Salmonella typhimurium): 0.5 µM (≈ 0.912 µg/mL)
- MIC [12]: ≥ 64 µM
- MIC (Streptococcus pyogenes): ≥ 64 µM
SMILES: CC[C@H](C)[C@H](NC(=O)[C@H](Cc1ccc(O)cc1)NC(=O)[C@@H](NC(=O)[C@@H]1CCCN1C(=O)[C@@H](N)CCCN=C(N)N)C(C)C)C(=O)N1CCC[C@H]1C(=O)N[C@@H](CCC(N)=O)C(=O)N1CCC[C@H]1C(=O)N[C@@H](CCCN=C(N)N)C(=O)N1CCC[C@H]1C(=O)N1CCC[C@H]1C(=O)N[C@@H](Cc1cnc[nH]1)C(=O)N1CCC[C@H]1C(=O)N[C@@H](CCCN=C(N)N)C(=O)N[C@@H](CC(C)C)C(=O)O [RPVYIPQPRPPHPRL]

- MIC [15]: ≥ 1250 µM
- MIC [16]: ≥ 1250 µM
- MIC [17]: ≥ 1250 µM
- MIC [18]: ≥ 625 µM
- MIC [19]: ≥ 2500 µM
- MIC [20]: ≥ 2500 µM
- MIC [11]: 32 µM (≈ 28.4 µg/mL)
- MIC [21]: ≥ 1250 µM
- MIC [22]: ≥ 2500 µM
- MIC [23]: ≥ 625 µM
- MIC [24]: ≥ 1250 µM
- MIC [25]: ≥ 1250 µM
- MIC [26]: ≥ 1250 µM
- MIC [27]: ≥ 1250 µM
SMILES: CC(C)C[C@H](NC(=O)[C@@H](N)C(C)C)C(=O)N[C@@H](CC(N)=O)C(=O)N[C@@H](CCC(=O)O)C(=O)N[C@@H](CC(N)=O)C(=O)N[C@@H](C)C(=O)N[C@@H](C)C(=O)N[C@@H](CCCN=C(N)N)C(=O)O [VLNENAAR]

- MIC (Proteus mirabilis): 31.8 µM (≈ 64 µg/mL)
- MIC (Pseudomonas aeruginosa): > 31.8 µM
- MIC (Staphylococcus aureus): 4.47 µM (≈ 9 µg/mL)
- MIC (Streptococcus pyogenes): 0.124 µM (≈ 0.25 µg/mL)
SMILES: NC(N)=NCCC[C@H](NC(=O)[C@H](CCCN=C(N)N)NC(=O)[C@H](CCCN=C(N)N)NC(=O)[C@H](CCCN=C(N)N)NC(=O)[C@H](CCCN=C(N)N)NC(=O)[C@H](CCCN=C(N)N)NC(=O)[C@H](CCCN=C(N)N)NC(=O)[C@H](CCCN=C(N)N)NC(=O)[C@H](Cc1c[nH]c2ccccc12)NC(=O)[C@H](Cc1c[nH]c2ccccc12)NC(=O)[C@H](Cc1c[nH]c2ccccc12)NC(=O)[C@@H](N)Cc1c[nH]c2ccccc12)C(=O)O [WWWWRRRRRRRR]
